From the supplement of paper PMC4862054
Values joined by “and” are separate entries in the source; they are usually repeats but may differ in a detail not shown here. Equal values may be shown once.

These compounds were tested on CAL-85-1 (assay: normalised viability (% of control), CellTiter-Blue; higher = more viable cells (about 100 = DMSO control)). Details: 1000 nM; incubation time: 72 h.
Procedure: (§1)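 DSRT, CellTiter-Blue viability, 72 h incubation. Signal is normalised to DMSO and benzethonium chloride controls. Value is the normalised response at dose 7.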

SMILES | normalised viability [%]
Cc1ccc(-c2cc(C(F)(F)F)nn2-c2ccc(S(N)(=O)=O)cc2)cc1 [Celecoxib] | 69.9
NCCCNCCSP(=O)(O)O [Amifostine] | 81.2

Each compound was assayed on DU-4475 in the same assay as above. Details: 99 nM; incubation time: 72 h.
Procedure: as §1

SMILES | normalised viability [%]
CCN(CC)CCCC(C)Nc1c2ccc(Cl)cc2nc2ccc(OC)cc12 (stereo not given) [Mepacrine] | 97.3

Same assay, conditions: 100 nM; incubation time: 72 h

SMILES | normalised viability [%]
O=C(/C=C/c1cccnc1)NCCCCC1CCN(C(=O)c2ccccc2)CC1 [FK-866] | 6.4
CC[C@@H]1C(=O)N(C)c2cnc(Nc3ccc(C(=O)NC4CCN(C)CC4)cc3OC)nc2N1C1CCCC1 [BI 2536] | 22.3

Same assay, conditions: 1000 nM; incubation time: 72 h

SMILES | normalised viability
Nc1nc(F)nc2c1ncn2[C@@H]1O[C@H](CO)[C@@H](O)[C@@H]1O [Fludarabine] | 99.5%
Nc1ncn([C@H]2C[C@H](O)[C@@H](CO)O2)c(=O)n1 [Decitabine] | 76.6% and 89.9%
O=C(O)C1(C(=O)O)CCC1.[NH2-].[NH2-].[Pt+2] [Carboplatin] | 97.3%
N#Cc1ccc(C(c2ccc(C#N)cc2)n2cncn2)cc1 [Letrozole] | 87.2%
C1CN1c1nc(N2CC2)nc(N2CC2)n1 [Triethylenemelamine] | 102%
CCCS(=O)(=O)Nc1ccc(F)c(C(=O)c2c[nH]c3ncc(-c4ccc(Cl)cc4)cc23)c1F [Vemurafenib] | 25.6%
O=C(O)C(=O)O.[NH-][C@@H]1CCCC[C@H]1[NH-].[Pt+2] [Oxaliplatin] | 104%
CCN(CC)CCCC(C)Nc1c2ccc(Cl)cc2nc2ccc(OC)cc12 (stereo not given) [Mepacrine] | 84.3%
Cc1ccc(-c2cc(C(F)(F)F)nn2-c2ccc(S(N)(=O)=O)cc2)cc1 [Celecoxib] | 110%
NCCCNCCSP(=O)(O)O [Amifostine] | 82.7%

What follows are compounds tested on HDQ-P1 in the same assay as above. Details: 99 nM; incubation time: 72 h.
Procedure: as §1

SMILES | normalised viability [%]
CCN(CC)CCCC(C)Nc1c2ccc(Cl)cc2nc2ccc(OC)cc12 (stereo not given) [Mepacrine] | 86.9

Same assay, conditions: 100 nM; incubation time: 72 h

SMILES | normalised viability [%]
O=C(/C=C/c1cccnc1)NCCCCC1CCN(C(=O)c2ccccc2)CC1 [FK-866] | 48.9
CC[C@@H]1C(=O)N(C)c2cnc(Nc3ccc(C(=O)NC4CCN(C)CC4)cc3OC)nc2N1C1CCCC1 [BI 2536] | 57.7

Same assay, conditions: 1000 nM; incubation time: 72 h

SMILES | normalised viability
Nc1nc(F)nc2c1ncn2[C@@H]1O[C@H](CO)[C@@H](O)[C@@H]1O [Fludarabine] | 98.4%
Nc1ncn([C@H]2C[C@H](O)[C@@H](CO)O2)c(=O)n1 [Decitabine] | 87.1% and 88.9%
O=C(O)C1(C(=O)O)CCC1.[NH2-].[NH2-].[Pt+2] [Carboplatin] | 97.1%
N#Cc1ccc(C(c2ccc(C#N)cc2)n2cncn2)cc1 [Letrozole] | 83.8%
C1CN1c1nc(N2CC2)nc(N2CC2)n1 [Triethylenemelamine] | 102%
CCCS(=O)(=O)Nc1ccc(F)c(C(=O)c2c[nH]c3ncc(-c4ccc(Cl)cc4)cc23)c1F [Vemurafenib] | 90.5%
O=C(O)C(=O)O.[NH-][C@@H]1CCCC[C@H]1[NH-].[Pt+2] [Oxaliplatin] | 97.9%
CCN(CC)CCCC(C)Nc1c2ccc(Cl)cc2nc2ccc(OC)cc12 (stereo not given) [Mepacrine] | 84.9%
Cc1ccc(-c2cc(C(F)(F)F)nn2-c2ccc(S(N)(=O)=O)cc2)cc1 [Celecoxib] | 83.2%
NCCCNCCSP(=O)(O)O [Amifostine] | 89.8%

What follows are compounds tested on MDA-MB-453 in the same assay as above. Details: 99 nM; incubation time: 72 h.
Procedure: as §1

SMILES | normalised viability [%]
CCN(CC)CCCC(C)Nc1c2ccc(Cl)cc2nc2ccc(OC)cc12 (stereo not given) [Mepacrine] | 97.2

Same assay, conditions: 100 nM; incubation time: 72 h

SMILES | normalised viability [%]
O=C(/C=C/c1cccnc1)NCCCCC1CCN(C(=O)c2ccccc2)CC1 [FK-866] | 21.1
CC[C@@H]1C(=O)N(C)c2cnc(Nc3ccc(C(=O)NC4CCN(C)CC4)cc3OC)nc2N1C1CCCC1 [BI 2536] | 29.9

Same assay, conditions: 1000 nM; incubation time: 72 h

SMILES | normalised viability
Nc1nc(F)nc2c1ncn2[C@@H]1O[C@H](CO)[C@@H](O)[C@@H]1O [Fludarabine] | 108%
Nc1ncn([C@H]2C[C@H](O)[C@@H](CO)O2)c(=O)n1 [Decitabine] | 96% and 103%
O=C(O)C1(C(=O)O)CCC1.[NH2-].[NH2-].[Pt+2] [Carboplatin] | 99.3%
N#Cc1ccc(C(c2ccc(C#N)cc2)n2cncn2)cc1 [Letrozole] | 96.5%
C1CN1c1nc(N2CC2)nc(N2CC2)n1 [Triethylenemelamine] | 94.4%
CCCS(=O)(=O)Nc1ccc(F)c(C(=O)c2c[nH]c3ncc(-c4ccc(Cl)cc4)cc23)c1F [Vemurafenib] | 87.2%
O=C(O)C(=O)O.[NH-][C@@H]1CCCC[C@H]1[NH-].[Pt+2] [Oxaliplatin] | 109%
CCN(CC)CCCC(C)Nc1c2ccc(Cl)cc2nc2ccc(OC)cc12 (stereo not given) [Mepacrine] | 101%
Cc1ccc(-c2cc(C(F)(F)F)nn2-c2ccc(S(N)(=O)=O)cc2)cc1 [Celecoxib] | 103%
NCCCNCCSP(=O)(O)O [Amifostine] | 92.9%

Each compound was assayed on MDA-MB-468 (assay: normalised viability (% of control), CellTiter-Blue; higher = more viable cells (100 = DMSO, 0 = benzethonium chloride kill control)). Details: 0.099 nM; incubation time: 72 h.
Procedure: (§2)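 DSRT, CellTiter-Blue viability, 72 h incubation. Signal is normalised to DMSO and benzethonium chloride controls. Value is the normalised response at dose 1.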

SMILES | normalised viability [%]
CCN(CC)CCCC(C)Nc1c2ccc(Cl)cc2nc2ccc(OC)cc12 (stereo not given) [Mepacrine] | 108

Same assay, conditions: 0.1 nM; incubation time: 72 h

SMILES | normalised viability [%]
O=C(/C=C/c1cccnc1)NCCCCC1CCN(C(=O)c2ccccc2)CC1 [FK-866] | 106
CC[C@@H]1C(=O)N(C)c2cnc(Nc3ccc(C(=O)NC4CCN(C)CC4)cc3OC)nc2N1C1CCCC1 [BI 2536] | 114

Same assay, conditions: 1 nM; incubation time: 72 h

SMILES | normalised viability
Nc1nc(F)nc2c1ncn2[C@@H]1O[C@H](CO)[C@@H](O)[C@@H]1O [Fludarabine] | 91.2%
Nc1ncn([C@H]2C[C@H](O)[C@@H](CO)O2)c(=O)n1 [Decitabine] | 96.6% and 98.9%
O=C(O)C1(C(=O)O)CCC1.[NH2-].[NH2-].[Pt+2] [Carboplatin] | 100%
N#Cc1ccc(C(c2ccc(C#N)cc2)n2cncn2)cc1 [Letrozole] | 90.6%
C1CN1c1nc(N2CC2)nc(N2CC2)n1 [Triethylenemelamine] | 102%
CCCS(=O)(=O)Nc1ccc(F)c(C(=O)c2c[nH]c3ncc(-c4ccc(Cl)cc4)cc23)c1F [Vemurafenib] | 110%
O=C(O)C(=O)O.[NH-][C@@H]1CCCC[C@H]1[NH-].[Pt+2] [Oxaliplatin] | 109%
CCN(CC)CCCC(C)Nc1c2ccc(Cl)cc2nc2ccc(OC)cc12 (stereo not given) [Mepacrine] | 101%
Cc1ccc(-c2cc(C(F)(F)F)nn2-c2ccc(S(N)(=O)=O)cc2)cc1 [Celecoxib] | 102%
NCCCNCCSP(=O)(O)O [Amifostine] | 111%

What follows are compounds tested on MFM-223 in the same assay as above. Details: 0.099 nM; incubation time: 72 h.
Procedure: as §2

SMILES | normalised viability [%]
CCN(CC)CCCC(C)Nc1c2ccc(Cl)cc2nc2ccc(OC)cc12 (stereo not given) [Mepacrine] | 103

Same assay, conditions: 0.1 nM; incubation time: 72 h

SMILES | normalised viability [%]
O=C(/C=C/c1cccnc1)NCCCCC1CCN(C(=O)c2ccccc2)CC1 [FK-866] | 105
CC[C@@H]1C(=O)N(C)c2cnc(Nc3ccc(C(=O)NC4CCN(C)CC4)cc3OC)nc2N1C1CCCC1 [BI 2536] | 99

Same assay, conditions: 1 nM; incubation time: 72 h

SMILES | normalised viability
Nc1nc(F)nc2c1ncn2[C@@H]1O[C@H](CO)[C@@H](O)[C@@H]1O [Fludarabine] | 101%
Nc1ncn([C@H]2C[C@H](O)[C@@H](CO)O2)c(=O)n1 [Decitabine] | 82.4% and 104%
O=C(O)C1(C(=O)O)CCC1.[NH2-].[NH2-].[Pt+2] [Carboplatin] | 96.6%
N#Cc1ccc(C(c2ccc(C#N)cc2)n2cncn2)cc1 [Letrozole] | 49.6%
C1CN1c1nc(N2CC2)nc(N2CC2)n1 [Triethylenemelamine] | 100%
CCCS(=O)(=O)Nc1ccc(F)c(C(=O)c2c[nH]c3ncc(-c4ccc(Cl)cc4)cc23)c1F [Vemurafenib] | 90.7%
O=C(O)C(=O)O.[NH-][C@@H]1CCCC[C@H]1[NH-].[Pt+2] [Oxaliplatin] | 97.1%
CCN(CC)CCCC(C)Nc1c2ccc(Cl)cc2nc2ccc(OC)cc12 (stereo not given) [Mepacrine] | 96%
Cc1ccc(-c2cc(C(F)(F)F)nn2-c2ccc(S(N)(=O)=O)cc2)cc1 [Celecoxib] | 98.5%
NCCCNCCSP(=O)(O)O [Amifostine] | 76.4%

These compounds were tested on MDA-MB-468 (assay: drug sensitivity score (DSS), CellTiter-Blue viability (DSS (AUC-based score)); higher = stronger viability inhibition; extreme values may be limits of the assay). Details: incubation time: 72 h.
Method in brief: (§3)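 Each 384-well plate was normalised to two references, 0.1 % DMSO and a positive kill control. Breast cancer cell lines (20 µl suspension) had been seeded onto compound at 5 or 9 concentrations and incubated 72 h, after which viability was read by CellTiter-Blue fluorescence at 560/590 nm. The drug sensitivity score reflects the area under the fitted dose-response curve.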

SMILES | drug sensitivity score
Nc1nc(F)nc2c1ncn2[C@@H]1O[C@H](CO)[C@@H](O)[C@@H]1O [Fludarabine] | 0
Nc1ncn([C@H]2C[C@H](O)[C@@H](CO)O2)c(=O)n1 [Decitabine] | 21.5 and 21.6
O=C(/C=C/c1cccnc1)NCCCCC1CCN(C(=O)c2ccccc2)CC1 [FK-866] | 30.1
CC[C@@H]1C(=O)N(C)c2cnc(Nc3ccc(C(=O)NC4CCN(C)CC4)cc3OC)nc2N1C1CCCC1 [BI 2536] | 15
O=C(O)C1(C(=O)O)CCC1.[NH2-].[NH2-].[Pt+2] [Carboplatin] | 0
N#Cc1ccc(C(c2ccc(C#N)cc2)n2cncn2)cc1 [Letrozole] | 0
C1CN1c1nc(N2CC2)nc(N2CC2)n1 [Triethylenemelamine] | 0
CCCS(=O)(=O)Nc1ccc(F)c(C(=O)c2c[nH]c3ncc(-c4ccc(Cl)cc4)cc23)c1F [Vemurafenib] | 0
O=C(O)C(=O)O.[NH-][C@@H]1CCCC[C@H]1[NH-].[Pt+2] [Oxaliplatin] | 2.32
Cc1ccc(-c2cc(C(F)(F)F)nn2-c2ccc(S(N)(=O)=O)cc2)cc1 [Celecoxib] | 0
NCCCNCCSP(=O)(O)O [Amifostine] | 0

The compounds below were run on MFM-223 in the same assay as above. Details: incubation time: 72 h.
Method in brief: as §3

SMILES | drug sensitivity score
Nc1nc(F)nc2c1ncn2[C@@H]1O[C@H](CO)[C@@H](O)[C@@H]1O [Fludarabine] | 0
Nc1ncn([C@H]2C[C@H](O)[C@@H](CO)O2)c(=O)n1 [Decitabine] | 0
O=C(/C=C/c1cccnc1)NCCCCC1CCN(C(=O)c2ccccc2)CC1 [FK-866] | 23.9
CC[C@@H]1C(=O)N(C)c2cnc(Nc3ccc(C(=O)NC4CCN(C)CC4)cc3OC)nc2N1C1CCCC1 [BI 2536] | 19
O=C(O)C1(C(=O)O)CCC1.[NH2-].[NH2-].[Pt+2] [Carboplatin] | 1.39
N#Cc1ccc(C(c2ccc(C#N)cc2)n2cncn2)cc1 [Letrozole] | 0
C1CN1c1nc(N2CC2)nc(N2CC2)n1 [Triethylenemelamine] | 0
CCCS(=O)(=O)Nc1ccc(F)c(C(=O)c2c[nH]c3ncc(-c4ccc(Cl)cc4)cc23)c1F [Vemurafenib] | 0
O=C(O)C(=O)O.[NH-][C@@H]1CCCC[C@H]1[NH-].[Pt+2] [Oxaliplatin] | 0
CCN(CC)CCCC(C)Nc1c2ccc(Cl)cc2nc2ccc(OC)cc12 (stereo not given) [Mepacrine] | 2.66 and 2.79
Cc1ccc(-c2cc(C(F)(F)F)nn2-c2ccc(S(N)(=O)=O)cc2)cc1 [Celecoxib] | 0
NCCCNCCSP(=O)(O)O [Amifostine] | 0
